We go through 24 compounds from US20110288106A1, “ADENINE RECEPTOR LIGANDS” (Rheinische Friedrich-Wilhelms-Universitaet Bonn …, priority 2008, published 2011).

Counter-ions that a name gives are not always drawn.

In one data set the target is T1, Rat adenine receptor (Rattus norvegicus, UniProt Q7TN49).
T1 construct: 50 μg of rat cortical membrane preparations; from tissue; host or cells: rat brain cortex membranes
T1 sequence (Q7TN49 1-304): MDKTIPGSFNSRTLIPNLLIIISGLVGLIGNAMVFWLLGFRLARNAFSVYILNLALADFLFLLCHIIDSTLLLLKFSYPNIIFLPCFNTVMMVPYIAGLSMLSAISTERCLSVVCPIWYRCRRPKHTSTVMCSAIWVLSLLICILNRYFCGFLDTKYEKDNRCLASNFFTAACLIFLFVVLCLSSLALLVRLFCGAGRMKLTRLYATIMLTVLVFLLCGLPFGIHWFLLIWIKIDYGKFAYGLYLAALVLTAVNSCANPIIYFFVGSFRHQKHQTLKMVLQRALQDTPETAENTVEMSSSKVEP
Put plainly: Radioligand binding assay, [3H]adenine competition, rat cortical membrane preparations. Conditions: rat cortex membranes, vs. 10 nM [3H]adenine, mean ± SEM. Here is the method:
(§1) Competition assays with [8-^3H]adenine (27 Ci/mmol; GE Healthcare) were carried out as described previously (Gorzalka et al., Mol. Pharmacol. 2005, 67, 955-964). In brief, 50 μg of rat cortical membrane preparations or 100 μg of protein (HEK293 (human embryonic kidney) cell membrane preparations) was incubated with 10 nM [8^3H]adenine in 50 mM Tris-HCl buffer, pH 7.4, in a total volume of 200 μl. Inhibition curves were determined using 6 to 9 different concentrations of selected adenine derivative. Three separate experiments were performed each in triplicate. Nonspecific binding was determined by using 100 μM adenine. Incubations were carried out for 1 h at room temperature and terminated by rapid filtration through GF/B glass fiber filters (Whatman, Dassel, Germany). Filters were washed three times with ice-cold 50 mM Tris-HCl buffer, pH 7.4, 3 ml each. Filter-bound radioactivity was measured by liquid scintillation counting.
(§2) Data points represent means±SEM of three separate experiments each performed in triplicate.

In a further data set the test system is Human adenine receptor. Put plainly: Radioligand binding assay, [3H]adenine competition, HEK293 cell membrane preparations. Conditions: HEK293 cell membranes, vs. 10 nM [3H]adenine, mean ± SEM. Here is the method: as §1, §2
The target in data set [1] is T2, rAde1R (Rattus norvegicus, UniProt Q7TN49).
T2 construct: expressed in transfected cells; host or cells: 1321N1 human astrocytoma cells
T2 sequence (Q7TN49 1-304): T1 sequence (Q7TN49 1-304)
Put plainly: cAMP-dependent luciferase assay, inhibition of isoproterenol-stimulated cAMP accumulation. Conditions: for effect on isoproterenol-induced cAMP accumulation: 3 nM isoproterenol, n=3. The format is cell-based. Here is the method: 1321N1 cells stably expressing the rAde1R were cultured in DMEM supplemented with 10% (v/v) FCS, L-glutamine (2 mM), penicillin (100 U/ml), streptomycin (100 U/ml) and 400 μg/ml G 418 at 37° C. under a humidified atmosphere containing 5% CO2. Cells were cultured in 75 cm^2 flasks (3.2×10^5) for 24 h without antibiotics so that they were 90-95% confluent before transfection. The cAMP responsive reporter plasmid (pCER-luc) or serum response element (pSRE-luc) was transfected into 1321N1 cells expressing rat adenine receptors using Lipofectamine 2000 as a transfection reagent.
Reporter cells were seeded at a density of […] cells/well in a 24-well plate 18-20 hr prior to assay. After removal of culture medium, cells were washed twice with Hanks' balanced salt solution (containing 20 mM HEPES, pH 7.3). Adenine and selected adenine derivatives were diluted in Hanks' balanced salt solution containing 3 nM isoproterenol and then incubated with reporter cells in the same buffer for 3 h at 37° C. The reaction was stopped by removal of the reaction buffer and the luciferase expression was determined using Bright-Glo™ Luciferase assay system (Promega) as described in the kit protocol. Plates were shaken for 2 min to ensure complete lysis of cells. Then the total volume from each well was transferred to a white 96-well plate (Greiner bio-one). Luminescence was determined using a NOVOstar microplate reader (BMG labtech); each well was counted for 2 s at 20° C.
(Changes in cAMP serve as a functional read-out for many G protein-coupled receptors.)

Data set [2] concerns the target T2, rAde1R. The note with it: literature, Gorzalka et al. 2005; cited from earlier work.
Setting [3] is: 10 μM compound, 1321N1 cells expressing rAde1R.

A word on the Ki: it is the dissociation constant of the complex between target and ligand, obtained from inhibition or displacement. Lower therefore signals a stronger hold on the target. As to `O=C(CCNCCc1ccccc1)Nc1ncnc2[nH]cnc12` [Example 13, 3-Phenethyl-amino-N(9H-purin-6-yl)propionamide dihydrochloride], the Ki at Rat adenine receptor is 2.12 ± 0.07 µM; in the data set with Human adenine receptor, 6.93 ± 0.83 µM.
As a reminder, the melting point is the temperature of the solid-liquid transition. As for `CCCNCCC(=O)Nc1ncnc2[nH]cnc12` (as salt: hydrochloride) [Example 11, 3-Propyl-amino-N(9H-purin-6-yl)propionamide dihydrochloride], the melting point came out at 171 °C.
The compound `CC(C)(C)OC(=O)NCCCC(=O)Nc1ncnc2[nH]cnc12` [Example 8, 4-tert-Butyloxycarbonylamino-N(9H-purin-6-yl)butyramide] showed a melting point of 223 °C. The same compound had a Ki on Rat adenine receptor of 3.39 ± 0.56 µM. For the same compound, the Ki in the data set with Human adenine receptor came out at 2.68 ± 0.37 µM.
As for `O=C(CCNCCc1ccccc1)Nc1ncnc2[nH]cnc12` (as salt: hydrochloride) [Example 13, 3-Phenethyl-amino-N(9H-purin-6-yl)propionamide dihydrochloride], the melting point is 196 °C.
As to `CCCNCCC(=O)Nc1ncnc2[nH]cnc12` [Example 11, 3-Propyl-amino-N(9H-purin-6-yl)propionamide dihydrochloride], the Ki on Rat adenine receptor turned out to be 1.29 ± 0.24 µM; in the data set with Human adenine receptor, 6.85 ± 2.17 µM.
Turning to `CC(C)(C)OC(=O)NCCC(=O)Nc1ncnc2[nH]cnc12` [Example 7, 3-tert-Butyloxycarbonylamino-N(9H-purin-6-yl)propionamide], the melting point worked out at 191 °C. At Rat adenine receptor, this compound came in with an inhibition constant Ki of 0.334 ± 0.031 µM. The compound further showed an inhibition constant Ki in the data set with Human adenine receptor of 0.719 ± 0.081 µM.
As to `CCN(CCC(=O)Nc1ncnc2[nH]cnc12)C(=O)OC(C)(C)C` [Example 2, 3-(tert-Butyloxycarbonyl-ethyl-amino)-N(9H-purin-6-yl)propionamide], the melting point stood at 198 °C. The affinity at Rat adenine receptor, expressed as Ki, was 2.93 ± 0.4 µM. Moreover, the Ki in the data set with Human adenine receptor stood at 7.7 ± 2.4 µM.
`CNCCC(=O)Nc1ncnc2[nH]cnc12` (as salt: hydrochloride) [Example 9, 3-Methyl-amino-N(9H-purin-6-yl)propionamide dihydrochloride] returned a melting point of 213 °C.
In turn, `CN(CCC(=O)Nc1ncnc2[nH]cnc12)C(=O)OC(C)(C)C` [Example 1, 3-(tert-Butyloxycarbonyl-methyl-amino)-N(9H-purin-6-yl)propionamide] registered a melting point of 205 °C. At Rat adenine receptor, this compound showed a Ki of 0.949 ± 0.135 µM. For the same compound, the inhibition constant Ki in the data set with Human adenine receptor stood at 5.47 ± 1.28 µM. In addition, the “effect on isoproterenol-induced cAMP accumulation” value at rAde1R [1] (setting [3]) was “adenine receptor agonists”.
For `CCNCCC(=O)Nc1ncnc2[nH]cnc12` [Example 10, 3-Ethyl-amino-N(9H-purin-6-yl)propionamide dihydrochloride], the Ki on Rat adenine receptor amounted to 0.508 ± 0.163 µM; in the data set with Human adenine receptor it was 1.34 ± 0.48 µM. Besides, the “effect on isoproterenol-induced cAMP accumulation” value at rAde1R [1] (setting [3]) is listed as “adenine receptor agonists”.
Take `Cn1cnc2ncnc-2c1N` [1-methyl-adenine]: on rAde1R [2], the “values at the rAde1R” value is on record as “micromolar range”.
For `Cl.NCCCC(=O)Nc1ncnc2[nH]cnc12` [Example 15, 4-Amino-N(9H-purin-6-yl)butyramide hydrochloride], the melting point was 199 °C. The affinity on Rat adenine receptor, expressed as Ki, was 0.0805 ± 0.003 µM. In the data set on Human adenine receptor, this compound came in with a Ki of 0.149 ± 0.045 µM. In addition, the “effect on isoproterenol-induced cAMP accumulation” value at rAde1R [1] (setting [3]) is “adenine receptor agonists”.
`CC(C)(C)OC(=O)N(CCC(=O)Nc1ncnc2[nH]cnc12)CCc1ccccc1` [Example 6, 3-(tert-Butyloxycarbonyl-phenethyl-amino)-N(9H-purin-6-yl)propionamide] showed a melting point of 162 °C. This compound came in with an inhibition constant (Ki) on Rat adenine receptor of 9.07 ± 0.8 µM. The inhibition constant Ki with Human adenine receptor was ≥ 100 µM.
The matching figures for `CCCN(CCC(=O)Nc1ncnc2[nH]cnc12)C(=O)OC(C)(C)C` [Example 3, 3-(tert-Butyloxycarbonyl-propyl-amino)-N(9H-purin-6-yl)propionamide]: 205 °C, 11.8 ± 0.8 µM and ≥ 100 µM.
As to `O=C(CCNCc1ccccc1)Nc1ncnc2[nH]cnc12` [Example 12, 3-Benzyl-amino-N(9H-purin-6-yl)propionamide dihydrochloride], the figures for the Ki at Rat adenine receptor and in the data set on Human adenine receptor were 0.852 ± 0.131 µM and 3.27 ± 1.23 µM, respectively. In addition, the “effect on isoproterenol-induced cAMP accumulation” value at rAde1R [1] (setting [3]) is given as “adenine receptor agonists”.
The compound `O=C(CCNCc1ccccc1)Nc1ncnc2[nH]cnc12` (as salt: hydrochloride) [Example 12, 3-Benzyl-amino-N(9H-purin-6-yl)propionamide dihydrochloride] registered a melting point of 197 °C.
For `CCNCCC(=O)Nc1ncnc2[nH]cnc12` (as salt: hydrochloride) [Example 10, 3-Ethyl-amino-N(9H-purin-6-yl)propionamide dihydrochloride], the melting point is 216 °C.
As for `Cl.NCCC(=O)Nc1ncnc2[nH]cnc12` [Example 14, 3-Amino-N(9H-purin-6-yl)propionamide hydrochloride], the melting point was determined as 204 °C. For the same compound, at Rat adenine receptor, the inhibition constant Ki worked out at 0.0215 ± 0.0056 µM. The compound further yielded a Ki with Human adenine receptor of 0.0447 ± 0.0034 µM. Moreover, the “effect on isoproterenol-induced cAMP accumulation” value at rAde1R [1] (1 μM compound, 1321N1 cells expressing rAde1R) is “adenine receptor agonists”. Besides, at rAde1R [1] (1321N1 cells expressing rAde1R, FIG. 4), the “inhibition of isoproterenol-stimulated cAMP accumulation by different concentrations” value was “concentration-dependent inhibition”.
The compound `CCCCCCN(CCC(=O)Nc1ncnc2[nH]cnc12)C(=O)OC(C)(C)C` [Example 4, 3-(tert-Butyloxycarbonyl-hexyl-amino)-N(9H-purin-6-yl)propionamide] showed a melting point of 185 °C. The compound also yielded a Ki at Rat adenine receptor of 1.56 ± 0.026 µM. The compound also came in with a Ki in the data set on Human adenine receptor of 19.7 ± 0.7 µM.
`CNCCC(=O)Nc1ncnc2[nH]cnc12` [Example 9, 3-Methyl-amino-N(9H-purin-6-yl)propionamide dihydrochloride]: the Ki at Rat adenine receptor is 0.292 ± 0.056 µM; in the data set on Human adenine receptor it was 1.83 ± 0.09 µM. Also, at rAde1R [1] (setting [3]), the “effect on isoproterenol-induced cAMP accumulation” value is given as “no significant effect”. The Kb on rAde1R [1] (calculated from shift of adenine curve by 10 μM compound 9) is 165 nM. Also, at rAde1R [1] (compound 9 at 10 μM, 1321N1 cells expressing rAde1R, FIG. 5), the “effect on concentration-response curve of adenine” value is “shifted the concentration-response curve of adenine to the right proving that it is an antagonist”.
Regarding `Cn1cnc(N)c2ncnc1-2` [3-methyl-adenine], the “values at the rAde1R” value on rAde1R [2] is recorded as “micromolar range”.
For `Cn1cnc2ncnc(N)c21` [7-methyl-adenine], on rAde1R [2], the “values at the rAde1R” value is reported as “micromolar range”.
For the compound `CC(C)(C)OC(=O)N(CCC(=O)Nc1ncnc2[nH]cnc12)Cc1ccccc1` [Example 5, 3-(tert-Butyloxycarbonyl-benzyl-amino)-N(9H-purin-6-yl)propionamide], the melting point amounted to 202 °C. Also, the inhibition constant (Ki) at Rat adenine receptor was 9.02 ± 0.55 µM. In addition, the inhibition constant (Ki) with Human adenine receptor came out at 42.1 ± 1.8 µM.
For `Cn1cnc2c(N)ncnc21` [9-methyl-adenine], the “values at the rAde1R” value at rAde1R [2] is listed as “micromolar range”.
